Laboratory results reported in PMC7144209, “Design, synthesis and anticancer activity of naphthoquinone derivatives” (Journal of Enzyme Inhibition and Medicinal Chemistry, 2020).

Assays:
U87 = experiment: MTT cell viability assay, U87 cells; type: cell-based; settings: 48 h, n = 3
Experimental: (§1) MGC-803, SGC-7901, U87 and SMMC-7721 cell lines were cultured in DMEM supplemented with 10% foetal bovine serum, 100 IU/mL penicillin/streptomycin. The cells were incubated in an atmosphere containing 5% CO2 at 37 °C.
(§2) MGC-803, SGC-7901, U87 and SMMC-7721 cells were plated in 96-well plate at 7000 per well. Cells were incubated with the different concentrations of the compounds for 48 h. Subsequently, MTT (0.5 mg/mL) were used to test the cell viability, then 150 μL DMSO was added to each well after cells were incubated for 4 h and the absorbance was measured at 492 nm.

[1] = tested on: PI3K/AKT/MTOR signalling pathway; experiment: Western blot of PI3K/AKT/MTOR pathway; type: cell-based, human
Experimental: (§3) RIPA lysis buffer was used to dissociate the treated cells. Cells were lysed and the supernatant was harvested after centrifuged for 30 min. The cell proteins were separated using Sodium dodecyl sulphate-polyacrylamide gel electrophoresis, and then they were transferred to the PVDF membranes. The membranes were blocked with skimmed milk solution (5%) for 2 h, then incubated with primary antibodies (1:1000, cst) for 20 h at 4 °C. The membranes were detected by chemiluminescence reagent after probed with the secondary antibody for 1 h.
As a therapeutic target for cancer, the PI3K/AKT/MTOR signalling pathway participates in regulating autophagy. Consequently, Western blot experiment was used to explore the impact of compound 12 on the level of phospho-PI3K, phospho-AKT and phospho-mTOR. […] 3-MA (3-methyladenine) is also a PI3K inhibitor[57], so compound 12 (4 μM) with 3-MA (500 μM) were used to treated the cells.

[2] = tested on: SGC-7901, MGC-803, SMMC-7721, U-87 cell lines; experiment: MTT anticancer activity, summary in words over the cell line panel; type: cell-based; settings: MTT assay
Experimental: as §2
Compounds 1–24 were detected for anticancer activities against SGC-7901, MGC-803, SMMC-7721, U-87 cell lines in vitro by the MTT assay, and ADM was used as the positive control. From Table 1, when the phenolic hydroxyls of naphthoquinone moiety were converted to ether, the activity was missing. […] So colony formation assay of this compound (Figure 4) was used to investigate the effect of it on cell proliferation in SGC-7901 cells. The experiment examined the ability for producing colonies after the cells were treated with the cell death agents[35]^,[36].

SGC-7901 = experiment: MTT cell viability assay, SGC-7901 cells; type: cell-based, human; settings: n = 3
Experimental: as §1, §2

[3] = tested on: Bax, Bcl-2, cleaved PARP in SGC-7901 cells; experiment: Western blot of apoptosis-related proteins; type: cell-based, human
Experimental: as §3
Apoptosis is one of the main methods that result in cell death. In this study, Annexin V-FITC/PI kit was used to evaluate the cell apoptosis. […] To further, investigate whether the cell apoptosis induced by title compound, Western blot analysis was used to measure the effect of the compound on apoptosis of SGC-7901 cell. As reported that apoptosis pathway could be regulated by the activation of PARP and Bcl2 family proteins[40]^,[41].

[4] = Metabolic stability assay in human liver microsomes; type: in vitro ADME
Experimental: To initially evaluate the stability of compound 12, we then tested the liver microsome stability of this compound. The Mean % Parent Remaining of compound 12 in metabolic stability test were 100, 95, 85, 80, and 70 at 0, 15, 30, 45, and 60 min, respectively.

MGC-803 = experiment: MTT cell viability assay, MGC-803 cells; type: cell-based; settings: n = 3
Experimental: as §1, §2

[5] = tested on: GFP-LC3 in SGC-7901 cells; experiment: GFP-LC3 transfection, puncta by confocal microscopy; type: cell-based, human
Experimental: A plasmid GFP-tagged LC3 reporter gene (0.8 μg/500 μL) was transfected into SGC-7901 cells by Lipofectamine 2000, then cells were incubated for 24 h. After different treatments for 24 h, cells were fixed with 4% paraformaldehyde for 20 min, and washed three times with PBS. Finally, Laser confocal dishes were analysed using confocal microscope.
Another typical feature of autophagy is the accumulation of the acidic autophagic vacuoles (AVOs)[45]^,[46]. To verify the development of AVOs, Acridine Orange (AO) staining was used to examine whether the acidic vesicular organelles in SGC-7901 cells were increased. AO produces red fluorescence when it accumulates in acidic regions such as autophagy lysosomes and lysosomes and produces bright green fluorescence in the cytoplasm and the nucleus. […] GFP-LC3 indicating technique was also used to detect the autophagy at the same time. When autophagy is formed, multiple bright green fluorescent spots will form as the GFP-LC3 fusion protein can translate to autophagosome membrane. From Figure 6(C), compared to the blank control group, GFP-LC3 puncta were increased after cells treated with compound 12 (4 μM) meanwhile decreased after treated with compound 12 (4 μM) and 3-MA (500 μM).

[6] = tested on: LC3-II, P62, Beclin1 in SGC-7901 cells; experiment: Western blot of autophagy-related proteins; type: cell-based, human; settings: SGC-7901, Western blot
Experimental: as §3
Autophagy is a process of lysosomal degradation that can deliver the cytoplasmic cargo to the lysosome. To assess whether compound 12 could promote autophagy on SGC-7901 cells, the expressions of autophagy-related proteins were examined. Autophagy will be switched on when LC3-I was converted into LC3-II, and the level of LC3-II involves in the formation of autophagosome. Meanwhile p62 is a marker of the degradative lysosome[43]^,[44]. As shown in Figure 6(A), compound can decrease the level of P62 and increase the expressions of LC3II and Beclin1.

SGC-7901 cells = experiment: Colony formation assay; type: cell-based, human; settings: SGC-7901, 2, 4, 8 μM, 12 d
Experimental: SGC-7901 cells (8000/well) were seeded in 6-well plate, and treated with indicated concentrations of compound 12 (2 μM, 4 μM, 8 μM) for 12 d. The medium was removed and methanol (500 μL/well) was added to fix at the cells for 3 min. Then cells were stained with giemsa working fluid for 15 min and washed with PBS. The number of colonies was counted.

[7] = compound 12 4 μM with 3-MA 500 μM
[8] = SGC-7901, increasing concentration (1, 2, 4 μM)

CC(C)=CCC(OC(=O)CCC(=O)Nc1ccc(Oc2ccccc2)cc1)C1=CC(=O)c2c(O)ccc(O)c2C1=O (stereo not drawn) [Compound 12, 1-(5,8-dihydroxy-1,4-dioxo-1,4-dihydronaphthalen-2-yl)-4-methylpent-3-en-1-yl-4-oxo-4-((4-phenoxyphenyl)amino)butanoate]
IC50 (U87): 3.8 ± 0.2 µM
IC50 (U87; Homo sapiens, U-87 MG): 3.85 µM
expression of p-AKT ([1]; 1, 2, 4 μM, 48 h): decreased in a dose-dependent manner
expression of p-MTOR ([1]; 1, 2, 4 μM, 48 h): decreased in a dose-dependent manner
expression of p-PI3K ([1]; 1, 2, 4 μM, 48 h): decreased in a dose-dependent manner
ratio of p-AKT/AKT compared with compound 12 alone [1, 7]: increased
ratio of p-MTOR/MTOR compared with compound 12 alone [1, 7]: increased
ratio of p-PI3K/PI3K compared with compound 12 alone [1, 7]: increased
anticancer activity (in words) [2]: good activity
IC50 (SGC-7901; 48 h): 4.1 ± 2.6 µM
IC50 (SGC-7901; Homo sapiens, SGC-7901, 48 h): 4.09 µM
level of Bax [3, 8]: up-regulated
level of Bcl2 [3, 8]: down-regulated
level of cleaved PARP [3, 8]: up-regulated
up-regulation of Bax and cl-PARP and down-regulation of Bcl-2 in the group with 3-MA ([3]; compound 12 with 3-MA 500 μM, 48 h): inhibited
Mean % Parent Remaining ([4]; 0 min): 100%
Mean % Parent Remaining ([4]; 15 min): 95%
Mean % Parent Remaining ([4]; 30 min): 85%
Mean % Parent Remaining ([4]; 45 min): 80%
Mean % Parent Remaining ([4]; 60 min): 70%
microsomal CLint ([4]; human, read-out: calculated clearance rate): > 110 µL/min/mg
half-life ([4]; human, read-out: half-life (t1/2)): > 60 min
IC50 (MGC-803; 48 h): 4.1 ± 0.6 µM
IC50 (MGC-803; Homo sapiens, MGC-803, 48 h): 4.07 µM
GFP-LC3 puncta vs blank control ([5]; SGC-7901, compound 12 4 μM): increased
GFP-LC3 puncta ([5]; SGC-7901, compound 12 4 μM and 3-MA 500 μM): decreased
expression of Beclin1 [6]: increase
expression of LC3II [6]: increase
level of P62 [6]: decrease
number of colonies vs control (SGC-7901 cells): decreased
